From patent publication US20150094321A1, “COMBINATION” (GlaxoSmithKline LLC, priority 2009, published 2015)

Assays:
Experiment in all cases: Cell line proliferation study
Type in all cases: cell-based, human
NCIH358 = conditions: NCIH358, lung; for IC50: Homo sapiens, NCI-H358, 72 hours, read-out: gIC50
Description: (§1) In a separate study, combination drug tests with Compounds A and B were conducted using a panel of cell lines from human colon cancers (n=26), lung cancers (n=15) and pancreatic cancers (n=6). Cell lines were obtained from commercial vendors (ATCC and DSMZ). Cell lines were grown in RPMI-1640 supplemented with 2 mM glutamine, 1 mM sodium pyruvate and 10% fetal bovine serum (except for Capan-1 and HuP-T4 which were grown with 20% fetal bovine serum) and maintained at 37° C. and 5% CO2 in a humid incubator. Assays were performed in 384 well microtiter plates with optimum seeding densities for each cell line.
(§2) The test compounds were prepared as 10 mM stocks in 100% DMSO. Further dilutions of the compounds were made in DMSO. Compound A was diluted horizontally in a separate 96 well microtiter plate in rows D-G using a 3-fold dilution series for 10 dilution points. Compound B was similarly diluted horizontally in a 96 well microtiter plate in rows B-E using a 3-fold dilution series for 10 dilution points.
(§3) The two compounds were combined using equal volumes from each drug plate into cell culture media. […] Both Compound A and Compound B were individually titrated in rows B and C (for Compound B) and rows F and G (for Compound A) of the merged drug plate.
(§4) A 1:10 dilution of the drugs was performed in cell culture media prior to addition to the cells.
(§5) The final concentration range for the test compounds was 250 to 0.013 nM for Compound A and 1000 to […] for Compound B. The positive control consisted of culture media with DMSO at 0.1% and cells. The negative control consisted of culture media with DMSO at 0.1%. The cell lines were incubated at 37° C., 5% CO2 in humid air for 72 hours. Cell proliferation was measured using the CellTiter Glo (Promega) reagent according to the manufacturer's protocol. The plates are treated with CellTiter Glo solution and are analyzed for RLU (relative light units) using a Molecular Devices SpectraMax M5 plate reader.
(§6) The percent intensity values were used in model 205 of XLfit (IDBS, Inc.) in Microsoft Excel to calculate gIC50 values using a 4 parameter logistical fit. The midpoint of the growth window (the gIC50) falls half way between the number of cells at the time of compound addition (T=0) and the growth of control cells treated with DMSO at 72 hrs. The number of cells at time zero (T0) is divided from the intensity value at the bottom of the response curve (Ymin) to generate a measure for cell death (Ymin/T0). A value below 1 for Ymin/T0 indicates stronger potency to induce cell death with the treatment when compared to higher values. […]

ASPC1 = conditions: ASPC1, pancreas; for IC50: Homo sapiens, 72 hours, read-out: gIC50
Description: as §1, §2, §3, §4, §5, §6

NCIH508 = conditions: NCIH508, colon; for IC50: Homo sapiens, NCI-H508, 72 hours, read-out: gIC50
Description: as §1, §2, §3, §4, §5, §6

HCC2998 = conditions: HCC2998, colon; for IC50: Homo sapiens, HCC 2998, 72 hours, read-out: gIC50
Description: as §1, §2, §3, §4, §5, §6

NCIH1299 = conditions: NCIH1299, lung; for IC50: Homo sapiens, NCI-H1299, 72 hours, read-out: gIC50
Description: as §1, §2, §3, §4, §5
(§7) The percent intensity values were used in model 205 of XLfit (IDBS, Inc.) in Microsoft Excel to calculate gIC50 values using a 4 parameter logistical fit. The midpoint of the growth window (the gIC50) falls half way between the number of cells at the time of compound addition (T=0) and the growth of control cells treated with DMSO at 72 hrs. The number of cells at time zero (T0) is divided from the intensity value at the bottom of the response curve (Ymin) to generate a measure for cell death (Ymin/T0). A value below 1 for Ymin/T0 indicates stronger potency to induce cell death with the treatment when compared to higher values.
(§8) 1. Excess over Highest Single Agent (EOHSA)—This was calculated as described above (Borisy et al, 2003; FDA 21 CFR 300.50) 2. Bliss synergy—A second criterion often used to determine combination synergy is evaluating the excess inhibition over Bliss independence or “additivity” (Bliss and Mexico, 1939). The model assumes a combined response of the two compounds independently using the following:
(§9) Where Ea is the effect (or percent inhibition) of Compound A and Eb is the effect of Compound B. The resulting effect of the combination of the two compounds is compared to their predicted additivity by Bliss and a synergy score is generated for each dose along the response curve. 3. Combination Index (CI)—A third criterion traditionally used for the evaluation of synergy is Combination Index (CI) derived from the Chou and Talalay (1984). The following equation is a model used for compounds that behave with different mechanisms of action (mutually non-exclusive formula). This was calculated as described above.
(§10) For EOHSA and Bliss Synergy measures, a score is generated for each dose along the response curve. These scores reflect the percentage over the highest agent (EOHSA) or percentage greater than Bliss additivity, depending on which metric is being interpreted. […]

SW837 = conditions: SW837, colon; for IC50: Homo sapiens, 72 hours, read-out: gIC50
Description: as §1, §2, §3, §4, §5, §7, §8, §9, §10

HPAFII = conditions: pancreas; for IC50: Homo sapiens, HPAF-II, 72 hours, read-out: gIC50
Description: as §1, §2, §3, §4, §5, §7, §8, §9, §10

LS1034 = conditions: LS1034, colon; for IC50: Homo sapiens, LS-1034, 72 hours, read-out: gIC50
Description: as §1, §2, §3, §4, §5, §7, §8, §9, §10

SW403 = conditions: SW403, colon; for IC50: Homo sapiens, SW-403, 72 hours, read-out: gIC50
Description: as §1, §2, §3, §4, §5, §7, §8, §9, §10

HCT8 = conditions: HCT8, colon; for IC50: Homo sapiens, HCT-8, 72 hours, read-out: gIC50
Description: as §1, §2, §3, §4, §5, §7, §8, §9, §10

SW948 = conditions: SW948, colon; for IC50: Homo sapiens, 72 hours, read-out: gIC50
Description: as §1, §2, §3, §4, §5, §7, §8, §9, §10

SW480 = conditions: SW480, colon; for IC50: Homo sapiens, 72 hours, read-out: gIC50
Description: as §1, §2, §3, §4, §5, §7, §8, §9, §10

NCIH2122 = conditions: NCIH2122, lung; for IC50: Homo sapiens, NCI-H2122, 72 hours, read-out: gIC50
Description: as §1, §2, §3, §4, §5, §7, §8, §9, §10

| SMILES | IC50 (NCIH358) [nM] | Ymin/T0 (NCIH358) | Ymin/T0 (ASPC1) | IC50 (ASPC1) [nM] | IC50 (NCIH508) [nM] | Ymin/T0 (NCIH508) | Ymin/T0 (HCC2998) | IC50 (HCC2998) [nM] | IC50 (NCIH1299) [nM] | Ymin/T0 (NCIH1299) | IC50 (SW837) [nM] | Ymin/T0 (SW837) | IC50 (HPAFII) [nM] | Ymin/T0 (HPAFII) | IC50 (LS1034) [nM] | Ymin/T0 (LS1034) | IC50 (SW403) [nM] | Ymin/T0 (SW403) | Ymin/T0 (HCT8) | IC50 (HCT8) [nM] | further results |
| --- | --- | --- | --- | --- | --- | --- | --- | --- | --- | --- | --- | --- | --- | --- | --- | --- | --- | --- | --- | --- | --- |
| CC(=O)Nc1cccc(-n2c(=O)n(C3CC3)c(=O)c3c(Nc4ccc(I)cc4F)n(C)c(=O)c(C)c32)c1 [Compound A, N-{3-[3-cyclopropyl-5-(2-fluoro-4-iodo-phenylamino)-6,8-dimethyl-2,4,7-trioxo-3,4,6,7-tetrahydro-2H-pyrido[4,3-d]pyrimidin-1-yl]phenyl}acetamide] | 17.3 | 10.7 | 13.6 | 19.7 | 22.6 | 15.22 | 2.13 | 16.7 | 24 | 45.9 | 153 | 25.58 | 15.9 | −0.8 | 37 | 2.87 | 4.6 | 3.02 | 16.70 | 18.3 | IC50 (SW948): 185 nM; Ymin/T0 (SW948): 27.87; IC50 (SW480): 326 nM; Ymin/T0 (SW480): 29.37; IC50 (NCIH2122): 30 nM; Ymin/T0 (NCIH2122): −11.8 |
| Cn1ncc(Cl)c1-c1cc(C(=O)N[C@H](CN)Cc2ccc(F)c(F)c2)oc1Cl [Compound B, N-{(1S)-2-amino-1-[(3,4-difluorophenyl)methyl]ethyl}-5-chloro-4-(4-chloro-1-methyl-1H-pyrazol-5-yl)-2-furancarboxamide] | > 1000 | 37.2 | 42.9 | > 1000 | 68.2 | 11.12 | −4.90 | 292 | > 1000 | 58.1 | > 1000 | 63.88 | > 1000 | 31.2 | > 1000 | −0.67 | 74.3 | 8.82 | 20.44 | 758 | IC50 (SW948): 609 nM; Ymin/T0 (SW948): 20.46; IC50 (SW480): > 1000 nM; Ymin/T0 (SW480): 11.87; IC50 (NCIH2122): > 1000 nM; Ymin/T0 (NCIH2122): 11.4 |
